We go through 6 compounds from patent publication US20110256298A1, “BEER AND BEER-BASED BEVERAGES AND METHOD OF MODIFICATION OF POLYPHENOLS AND SILICON CONTENT IN THESE BEVERAGES” (priority 2009, published 2011).

≈ marks a conversion by molar mass, not a printed value.

A short description of data set [1]: Total amount of Silybum marianum polyphenols in bottled beer by HPLC. The format is physicochemical. Conditions: example 1 mixture dosed at 100 mg silymarin per liter; for Content in DIA beer: bottled DIA beer; for Content in PILS 12% beer: bottled PILS 12% beer; for Content in Non-alcoholic beer: bottled non-alcoholic beer. The procedure:
The total amount of Silybum marianum polyphenols in beers was determined by HPLC in bottled beer as a sum of silymarin components.

The nature of data set [2]: physchem. Conditions: for solubility thermodynamic: aqueous with cosolvent or surfactant or cyclodextrin, thermodynamic from solid. The format is physicochemical. From the text: The equilibrium solubility of silymarin in two kinds of beer after the addition of the water-soluble mixture with the Silybum marianum polyphenols according to example 1 are shown in the following table: […]

Regarding `COc1cc([C@H]2Oc3cc([C@H]4Oc5cc(O)cc(O)c5C(=O)[C@@H]4O)ccc3O[C@@H]2CO)ccc1O` [Silybin A], in data set [1], the “Content in DIA beer” value came to 5.7 mg/L, the “Content in PILS 12% beer” value was determined as 15.1 mg/L and the “Content in Non-alcoholic beer” value came to 11.5 mg/L. Moreover, in data set [2], the “equilibrium solubility in Lager Radegast Premium” value is 43.03 µg/mL and the “equilibrium solubility in Non-alcoholic Radegast Birell” value is 38.22 µg/mL.
`COc1cc([C@@H]2Oc3cc([C@H]4Oc5cc(O)cc(O)c5C(=O)[C@@H]4O)ccc3O[C@H]2CO)ccc1O` [Silybin B]: in data set [1], the “Content in DIA beer” value turned out to be 15.4 mg/L, the “Content in PILS 12% beer” value came to 28.4 mg/L and the “Content in Non-alcoholic beer” value stood at 29.4 mg/L. Also, in data set [2], the “equilibrium solubility in Lager Radegast Premium” value stood at 85.18 µg/mL and the “equilibrium solubility in Non-alcoholic Radegast Birell” value is 75.70 µg/mL.
On the same counts, the results for `COc1cc([C@@H]2Oc3c(O)cc([C@H]4Oc5cc(O)cc(O)c5C(=O)[C@@H]4O)cc3[C@H]2CO)ccc1O` [Silychristin] are 32.7 mg/L, 42.1 mg/L, 40.5 mg/L, 187.51 µg/mL and 176.46 µg/mL.
With `COc1cc([C@@H]2[C@H]3CO[C@@]4(O)C(=O)[C@@H]2C=C([C@H]2Oc5cc(O)cc(O)c5C(=O)[C@@H]2O)[C@@H]34)ccc1O` [Silydianin], the thermodynamic solubility in data set [2] (equilibrium solubility in Lager Radegast Premium) was 66.1 µg/mL (≈ 137 µM); in data set [2] (equilibrium solubility in Non-alcoholic Radegast Birell) it was 61.7 µg/mL (≈ 128 µM).
As for Isosilybin A + B, in data set [1], the “Content in DIA beer” value amounted to 20.9 mg/L, the “Content in PILS 12% beer” value amounted to 15.3 mg/L and the “Content in Non-alcoholic beer” value came to 12.5 mg/L. For the same compound, in data set [2], the “equilibrium solubility in Lager Radegast Premium” value came out at 54.33 µg/mL and the “equilibrium solubility in Non-alcoholic Radegast Birell” value worked out at 48.22 µg/mL.
With silymarin, in data set [2], the “equilibrium solubility in Lager Radegast Premium” value amounted to 436.17 µg/mL and the “equilibrium solubility in Non-alcoholic Radegast Birell” value stood at 400.31 µg/mL.

The solubility (thermodynamic) is the concentration in solution at equilibrium with solid.
